Laboratory results as given in the supplement of paper PMC10307832.

Columns and labels:
Test in all cases: relative viability (nuclei count vs DMSO), 5 days (fraction); higher = more cells survive
[1] = compound: C[C@]1(c2nc3c(C(N)=O)cccc3[nH]2)CCCN1 [Veliparib] + Cc1nc(Nc2ncc(C(=O)Nc3c(C)cccc3Cl)s2)cc(N2CCN(CCO)CC2)n1 [Dasatinib] (partner 0.075 µM)
Summary of the method: (§1)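 A single step with final 0.05% Triton X-100, 1% formaldehyde and 1 ug/ml Hoechst fixed the cells and stained nuclei 5 days after treatment. Lung cancer cell lines in 1536-well plates had been treated by pin tool the day after seeding with one drug alone or a fixed anchor-drug dose plus five library-drug doses (not always all listed) in √10 steps, and nuclei were counted on 4× images. Relative viability is the ratio of nuclei in treated wells to nuclei in vehicle wells, taken as the median of duplicate plates.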

[2] = compound: COC1=CC=C(C=C1)CN2C=CC3=C2C=C(C=C3)C(=O)NO + C[C@]1(O)C[C@@H](c2nc(-c3ccc4ccc(-c5ccccc5)nc4c3)c3c(N)nccn32)C1 [Linsitinib] (partner 1 µM)
Summary of the method: as §1

[3] = compound: C[C@]1(c2nc3c(C(N)=O)cccc3[nH]2)CCCN1 [Veliparib] + CC(=O)c1c(C)c2cnc(Nc3ccc(N4CCNCC4)cn3)nc2n(C2CCCC2)c1=O [Palbociclib] (partner 0.5 µM)
Summary of the method: as §1

[4] = compound: COC1=CC=C(C=C1)CN2C=CC3=C2C=C(C=C3)C(=O)NO + CC(C)C[C@H](NC(=O)[C@H](Cc1ccccc1)NC(=O)c1cnccn1)B(O)O [Bortezomib] (partner 0.002 µM)
Summary of the method: as §1

Cell Line | relative viability ([1]; first compound 0.02 µM) | relative viability ([1]; first compound 0.06325 µM) | relative viability ([1]; first compound 0.2 µM) | relative viability ([1]; first compound 0.6325 µM) | relative viability ([1]; first compound 2 µM) | relative viability ([2]; first compound 0.08 µM) | relative viability ([2]; first compound 0.253 µM) | relative viability ([2]; first compound 0.8 µM) | relative viability ([2]; first compound 2.53 µM) | relative viability ([2]; first compound 8 µM) | relative viability ([3]; first compound 0.02 µM) | relative viability ([3]; first compound 0.06325 µM) | relative viability ([3]; first compound 0.2 µM) | relative viability ([3]; first compound 0.6325 µM) | relative viability ([3]; first compound 2 µM) | relative viability ([4]; first compound 0.253 µM) | relative viability ([4]; first compound 0.8 µM) | relative viability ([4]; first compound 2.53 µM) | relative viability ([4]; first compound 8 µM) | relative viability ([4]; first compound 0.08 µM)
NCI-H2347 | 0.327 | 0.266 | 0.275 | 0.336 | 0.315 | 0.697 | 0.918 | 1.03 | 0.982 | 0.877 | 0.44 | 0.411 | 0.404 | 0.444 | 0.477 | 0.933 | 0.887 | 0.874 | 0.727 | 
NCI-H2405 | 0.225 | 0.171 | 0.225 | 0.244 | 0.222 | 0.66 | 0.932 | 0.915 | 0.915 | 0.794 | 0.529 |  | 0.569 | 0.504 | 0.503 | 0.924 | 1.02 | 1.01 | 0.961 | 0.546
NCI-H3122 | 0.674 | 0.792 | 0.84 | 0.766 | 0.572 | 0.975 | 1.04 | 1.03 | 1 | 0.997 | 0.166 | 0.147 | 0.207 | 0.179 | 0.192 | 1.03 | 1.04 | 1.09 | 0.983 | 1.06
PC-3 [JPC-3] | 1.04 | 0.93 | 0.967 | 0.985 | 0.975 | 0.963 | 0.962 | 0.97 | 1 | 1.06 | 0.54 |  | 0.493 | 0.566 | 0.543 | 0.814 | 0.833 | 0.817 | 0.854 | 0.808
PC-14 | 0.214 | 0.26 | 0.319 | 0.281 | 0.317 | 0.894 | 0.959 | 0.936 | 1.04 | 0.944 |  | 0.514 | 0.51 | 0.465 | 0.523 | 0.726 | 0.954 | 0.956 | 0.937 | 0.706
RERF-LC-KJ | 0.574 | 0.865 | 0.845 | 0.767 | 0.755 | 0.763 | 0.883 | 0.867 | 0.901 | 0.945 | 1.07 | 1.03 | 1.06 | 1.09 | 1.13 | 1.13 | 1.11 | 1.13 | 1.06 | 1.08
SK-LU-1 | 0.185 | 0.173 | 0.175 | 0.17 | 0.187 | 0.998 | 1.3 | 1.08 | 1.29 | 0.888 | 0.426 | 0.379 | 0.394 | 0.362 | 0.378 | 1.08 | 1.58 | 1.14 | 0.817 | 
UMC-11 | 0.505 | 0.451 | 0.483 | 0.452 | 0.542 | 0.891 | 0.974 | 1.06 | 0.959 | 0.938 | 0.314 | 0.303 | 0.318 | 0.331 | 0.368 | 0.668 | 0.809 | 0.67 | 0.634 | 0.665
